From US20260125417A1, “GLUCOCORTICOID RECEPTOR AGONISTS” (ELI LILLY AND COMPANY, priority 2022, published 2026)

What follows are compounds tested against T1, GR-LBD (Homo sapiens, UniProt P04150) (assay: hGR CoActivator Recruitment Assay (LanthaScreen TR-Fret GR Coactivator Assay)). Conditions: Fluorescein-SRC1-4 recruitment to GR-LBD, 10-point dilution, top concentration 200 nM, positive control 4 μM dexamethasone.
T1 construct: purchased Life Technologies A15899
T1 sequence (P04150 524-758 limits assumed): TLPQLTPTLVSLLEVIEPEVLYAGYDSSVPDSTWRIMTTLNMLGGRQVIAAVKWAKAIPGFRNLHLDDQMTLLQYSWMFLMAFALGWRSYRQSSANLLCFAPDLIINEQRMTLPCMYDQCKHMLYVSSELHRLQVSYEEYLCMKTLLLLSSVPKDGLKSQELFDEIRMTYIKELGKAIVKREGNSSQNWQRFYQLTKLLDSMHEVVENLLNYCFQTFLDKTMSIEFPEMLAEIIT
Type: biochemical
Procedure: Example 4. hGR CoActivator Recruitment Assay The activity of glucocorticoid compounds was measured using the LanthaScreen TR-Fret GR Coactivator Assay from Life Technologies (A15899). The compounds were acoustically transferred to an assay plate in a 3-fold 10-point serial dilution with atop concentration of 200 nM. Ten microliters of a 2× solution of GR-LBD was added to the compound plate and incubated for 10 min. Then ten microliters of a 2× solution of Fluoresein-SRC1-4 and Tb labelled anti-GST antibody were added to the plate. The plate was incubated in the dark for two hours and then read on an Envision plate reader, with excitation at 340 nm and emission at 520 nm (Fluorescein) and 490 nm (Terbium). The emission ratio of 520/490 was analyzed in Genedata. To obtain percent activity, the data was compared to a negative control of DMSO and positive control of 4 μM dexamethasone.

Structure (SMILES)	EC50
[2H]C([2H])([2H])Oc1ccc(OCc2cccc(N)c2)c(F)c1[C@H]1O[C@@H]2C[C@H]3[C@@H]4CCC5=CC(=O)C=C[C@]5(C)[C@H]4[C@@H](O)C[C@]3(C)[C@]2(C(=O)CO)O1 [Compound No. 1]	1.93 nM
CCc1ccc(OCc2cccc(N)c2)c(F)c1[C@H]1O[C@@H]2C[C@H]3[C@@H]4CCC5=CC(=O)C=C[C@]5(C)[C@H]4[C@@H](O)C[C@]3(C)[C@]2(C(=O)CO)O1 [compound 2, (6aR,6bS,7S,8aS,8bS,10S,11aR,12aS,12bS)-10-(3-((3-aminobenzyl)oxy)-6-ethyl-2-fluorophenyl)-7-hydroxy-8b-(2-hydroxyacetyl)-6a,8a-dimethyl-1,2,6a,6b,7,8,8a,8b,11a,12,12a,12b-dodecahydro-4H-naphtho[2′,1′:4,5]indeno[1,2-d][1,3]dioxol-4-one]	1.52 nM
COc1ccc(CCc2ccc(N)cc2)c(F)c1[C@H]1O[C@@H]2C[C@H]3[C@@H]4CCC5=CC(=O)C=C[C@]5(C)[C@H]4[C@@H](O)C[C@]3(C)[C@]2(C(=O)CO)O1 [compound 3, (6aR,6bS,7S,8aS,8bS,10S,11aR,12aS,12bS)-10-(3-(4-aminophenethyl)-2-fluoro-6-methoxyphenyl)-7-hydroxy-8b-(2-hydroxyacetyl)-6a,8a-dimethyl-1,2,6a,6b,7,8,8a,8b,11a,12,12a,12b-dodecahydro-4H-naphtho[2′,1′:4,5]indeno[1,2-d][1,3]dioxol-4-one]	1.65 nM
COc1ccc(OCCc2ccc(N)cc2)c(F)c1[C@H]1O[C@@H]2C[C@H]3[C@@H]4CCC5=CC(=O)C=C[C@]5(C)[C@H]4[C@@H](O)C[C@]3(C)[C@]2(C(=O)CO)O1 [compound 4, (6aR,6bS,7S,8aS,8bS,10S,11aR,12aS,12bS)-10-(3-(4-aminophenethoxy)-2-fluoro-6-methoxyphenyl)-7-hydroxy-8b-(2-hydroxyacetyl)-6a,8a-dimethyl-1,2,6a,6b,7,8,8a,8b,11a,12,12a,12b-dodecahydro-4H-naphtho[2′,1′:4,5]indeno[1,2-d][1,3]dioxol-4-one]	1.48 nM
COc1ccc(OCCc2cccc(N)c2)c(F)c1[C@H]1O[C@@H]2C[C@H]3[C@@H]4CCC5=CC(=O)C=C[C@]5(C)[C@H]4[C@@H](O)C[C@]3(C)[C@]2(C(=O)CO)O1 [compound 5, (6aR,6bS,7S,8aS,8bS,10S,11aR,12aS,12bS)-10-(3-(3-aminophenethoxy)-2-fluoro-6-methoxyphenyl)-7-hydroxy-8b-(2-hydroxyacetyl)-6a,8a-dimethyl-1,2,6a,6b,7,8,8a,8b,11a,12,12a,12b-dodecahydro-4H-naphtho[2′,1′:4,5]indeno[1,2-d][1,3]dioxol-4-one]	2.25 nM
